Measured values from patent US10294202B2, “Pyrrolidinones as herbicides” (FMC Corporation, priority 2013, dated 2019).

Assays:
lambsquarters = assay: Test D pre-/postemergence herbicide test; format: in vivo, Chenopodium album; settings: Postemergence, Lambsquarters, scale 0 to 100
How it was run: (§1)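 Visual 0–100 ratings (0 = no effect, 100 = complete control) versus controls, made 7 to 21 days after treatment in a controlled growth environment. Test chemicals in surfactant-containing non-phytotoxic solvent were applied preemergence to silt loam-sown seeds and postemergence to plants 2–18 cm tall.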

Russian thistle = assay: Test D pre-/postemergence herbicide test; format: in vivo, Salsola kali; settings: Postemergence, Russian Thistle, scale 0 to 100
How it was run: as §1

barley, spring = assay: Test D pre-/postemergence herbicide test; format: in vivo, Hordeum vulgare; settings: Postemergence, Barley, Spring, scale 0 to 100
How it was run: as §1

barley, winter = assay: Test D pre-/postemergence herbicide test; format: in vivo, Hordeum vulgare; settings: Postemergence, Barley, Winter, scale 0 to 100
How it was run: as §1

monochoria = assay: Test F flood (paddy) test; format: in vivo, Monochoria vaginalis; settings: 21 d, scale 0-100
How it was run: (§2)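 Pots of sterilized Tama silt loam (35:50:15 sand:silt:clay, 2.6% organic matter) were sown so crop and weeds reached the 2.0–2.5-leaf stage; greenhouse 30/27 °C, 16-h photoperiod. Pots flooded to 3 cm, compound applied into paddy water, depth maintained. Visual rating vs untreated controls after 21 d, 0–100 scale.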

sprangletop, Brdd. = assay: Test F flood (paddy) test; format: in vivo, Leptochloa fascicularis; settings: 21 d, scale 0-100
How it was run: as §2

rice, transplanted = assay: Test F flood (paddy) test; format: in vivo, Oryza sativa cv. Japonica—M202; settings: 21 d, scale 0-100
How it was run: as §2

O=C1NCC(c2ccc(F)c(F)c2)C1C(=O)Nc1cccc(F)c1F (centres unmarked) [Compound 17, N-(2,3-difluorophenyl)-4-(3,4-difluorophenyl)-2-oxo-3-pyrrolidinecarboxamide]
Plant response rating (lambsquarters; 16 g ai/ha): 0
Plant response rating (lambsquarters; 31 g ai/ha): 0
Plant response rating (lambsquarters; 62 g ai/ha): 0
Plant response rating (lambsquarters; 125 g ai/ha): 20
Plant response rating (lambsquarters; 250 g ai/ha): 40
Plant response rating (Russian thistle; 16 g ai/ha): 0
Plant response rating (Russian thistle; 31 g ai/ha): 0
Plant response rating (Russian thistle; 62 g ai/ha): 0
Plant response rating (Russian thistle; 125 g ai/ha): 20
Plant response rating (Russian thistle; 250 g ai/ha): 40
Plant response rating (barley, spring; 16 g ai/ha): 0
Plant response rating (barley, spring; 31 g ai/ha): 0
Plant response rating (barley, spring; 62 g ai/ha): 0
Plant response rating (barley, spring; 125 g ai/ha): 0
Plant response rating (barley, spring; 250 g ai/ha): 0
Plant response rating (barley, winter; 16 g ai/ha): 0
Plant response rating (barley, winter; 31 g ai/ha): 0
Plant response rating (barley, winter; 62 g ai/ha): 0
Plant response rating (barley, winter; 125 g ai/ha): 0
Plant response rating (barley, winter; 250 g ai/ha): 0
Plant response rating, Monochoria (monochoria; 125 g ai/ha): 90
Plant response rating, Monochoria (monochoria; 250 g ai/ha): 90
Plant response rating, Monochoria (monochoria; 500 g ai/ha): 95
Plant response rating, Monochoria (monochoria; 1000 g ai/ha): 95
Plant response rating, Monochoria (monochoria; 2000 g ai/ha): 95
Plant response rating, Sprangletop, Brdd. (sprangletop, Brdd.; 125 g ai/ha): 85
Plant response rating, Sprangletop, Brdd. (sprangletop, Brdd.; 250 g ai/ha): 85
Plant response rating, Sprangletop, Brdd. (sprangletop, Brdd.; 500 g ai/ha): 85
Plant response rating, Sprangletop, Brdd. (sprangletop, Brdd.; 1000 g ai/ha): 85
Plant response rating, Sprangletop, Brdd. (sprangletop, Brdd.; 2000 g ai/ha): 100
Plant response rating, Rice, Transplanted (rice, transplanted; 125 g ai/ha): 10
Plant response rating, Rice, Transplanted (rice, transplanted; 250 g ai/ha): 10
Plant response rating, Rice, Transplanted (rice, transplanted; 500 g ai/ha): 10
Plant response rating, Rice, Transplanted (rice, transplanted; 1000 g ai/ha): 10
Plant response rating, Rice, Transplanted (rice, transplanted; 2000 g ai/ha): 10
